Drawing on PubChem BioAssay AID256 (DTP/NCI, 2004), this text covers T/C for 24 compounds.

Values joined by “and” are separate entries in the source; they are usually repeats but may differ in a detail not shown here. Identical values can stand only once. Toxic doses and inconclusive results are not listed.

The assay concerns CD2F1 mice, L1210 leukemia ip, survival T/C. The assay can be described thus: NCI In Vivo Anticancer Drug Screen. Data for tumor model L1210 Leukemia (intraperitoneal) in CD2F1 (CDF1) mice. Particulars: higher = longer survival. In a few lines:
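Read-out first: treated-group measurement over vehicle-control measurement, expressed as a ratio. Animals bore a transplanted tumor line and were dosed with compound or vehicle.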

[1] abbreviates: endpoint: mean survival time, dose: 100.0 mg/kg/injection, schedule: Q04DX003 (ip), vehicle: saline with Tween-80.
The mark [2] stands for this setting: endpoint: mean survival time, dose: 200.0 mg/kg/injection, schedule: Q04DX003 (ip), vehicle: saline with Tween-80.
Setting [3] is: endpoint: mean survival time, dose: 50.0 mg/kg/injection, schedule: Q01DX009 (ip), vehicle: saline with Tween-80.
Setting [4] is: endpoint: mean survival time, dose: 100.0 mg/kg/injection, schedule: Q01DX009 (ip), vehicle: saline with Tween-80.
[5] abbreviates: endpoint: mean survival time, dose: 200.0 mg/kg/injection, schedule: Q01DX009 (ip), vehicle: saline with Tween-80.
[6] abbreviates: endpoint: mean survival time, dose: 100.0 mg/kg/injection, schedule: Q01DX001 (ip), vehicle: saline with Tween-80.
The mark [7] stands for this setting: endpoint: mean survival time, dose: 200.0 mg/kg/injection, schedule: Q01DX001 (ip), vehicle: saline with Tween-80.
Setting [8] is: endpoint: mean survival time, dose: 400.0 mg/kg/injection, schedule: Q01DX001 (ip), vehicle: saline with Tween-80.
Setting [9] is: endpoint: mean survival time, dose: 75.0 mg/kg/injection, schedule: Q01DX001 (ip), vehicle: saline.
Where [10] appears, read: endpoint: mean survival time, dose: 150.0 mg/kg/injection, schedule: Q01DX001 (ip), vehicle: saline.
The mark [11] stands for this setting: endpoint: mean survival time, dose: 100.0 mg/kg/injection, schedule: Q01DX009 (ip), vehicle: saline.
Setting [12] is: endpoint: mean survival time, dose: 100.0 mg/kg/injection, schedule: Q04DX003 (ip), vehicle: saline.
The mark [13] stands for this setting: endpoint: mean survival time, dose: 200.0 mg/kg/injection, schedule: Q01DX009 (ip), vehicle: saline.
Setting [14] is: endpoint: mean survival time, dose: 300.0 mg/kg/injection, schedule: Q01DX001 (ip), vehicle: saline.

Take `BrC1CCC([Si](c2ccccc2)(c2ccccc2)c2ccccc2)CC1` (stereo not given): the T/C was 87 % of control under setting [1]; 93 % of control under setting [2]; 93 % of control (endpoint: mean survival time, dose: 400.0 mg/kg/injection, schedule: Q04DX003 (ip), vehicle: saline with Tween-80).

`COc1ncn(C2CC(OC(=O)c3ccc(C)cc3)C(COC(=O)c3ccc(C)cc3)O2)c(=O)n1` (stereo not given): the T/C under setting [2] is 86 % of control.

Consider `COc1ccc(OCCOC(=O)Nc2ccc(C)c([N+](=O)[O-])c2)cc1`, for which the T/C is 92 % of control under setting [3], 88 % of control under setting [4] and 92 % of control under setting [5].

In the case of `C1=C(c2ccccc2)NN=C(c2ccccc2)C1c1ccccc1` (stereo not given), the T/C reads like this: (endpoint: mean survival time, dose: 1.56 mg/kg/injection, schedule: Q01DX001 (ip), vehicle: saline with Tween-80) 103 % of control; (endpoint: mean survival time, dose: 1.56 mg/kg/injection, schedule: Q01DX009 (ip), vehicle: saline with Tween-80) 98 % of control; (endpoint: mean survival time, dose: 3.13 mg/kg/injection, schedule: Q01DX001 (ip), vehicle: saline with Tween-80) 101 % of control; (endpoint: mean survival time, dose: 3.13 mg/kg/injection, schedule: Q01DX009 (ip), vehicle: saline with Tween-80) 102 % of control; (endpoint: mean survival time, dose: 6.25 mg/kg/injection, schedule: Q01DX001 (ip), vehicle: saline with Tween-80) 94 % of control; (endpoint: mean survival time, dose: 6.25 mg/kg/injection, schedule: Q01DX009 (ip), vehicle: saline with Tween-80) 98 % of control. Moreover, under “endpoint: mean survival time, dose: 50.0 mg/kg/injection, schedule: Q01DX001 (ip), vehicle: saline with Tween-80”, the T/C was 87 % of control.

Consider `Cc1c2c(cc3c1CCC1(C)C3CCC1C(C)/C=C/C(C)C(C)C)CC(O)CC2` (stereo not given), for which the T/C runs as follows: under setting [6], 92 % of control; under setting [7], 95 % of control; under setting [8], 92 % of control.

For the compound `CN(C)CCC(C#N)(c1ccccc1)c1ccccc1`, the T/C is, setting by setting: under setting [9], 102 % of control; under setting [10], 100 % of control.

`CN1CCC(CO)C1` (stereo not given): the T/C is 91 % of control (endpoint: mean survival time, dose: 25.0 mg/kg/injection, schedule: Q01DX009 (ip), vehicle: water); 109 % of control (endpoint: mean survival time, dose: 50.0 mg/kg/injection, schedule: Q01DX009 (ip), vehicle: saline); 87 % of control (endpoint: mean survival time, dose: 50.0 mg/kg/injection, schedule: Q01DX009 (ip), vehicle: water); 101 % of control under setting [11]; 87 % of control (endpoint: mean survival time, dose: 100.0 mg/kg/injection, schedule: Q01DX009 (ip), vehicle: water); 96 % of control under setting [12]. For the same compound, the T/C under setting [13] is 101 % of control; the T/C (endpoint: mean survival time, dose: 200.0 mg/kg/injection, schedule: Q01DX009 (ip), vehicle: water) is 89 % of control; the T/C (endpoint: mean survival time, dose: 200.0 mg/kg/injection, schedule: Q04DX003 (ip), vehicle: saline) was 97 % of control.

Turning to `CCCC/C=C/C1CCCCC1C` (stereo not given), the T/C runs as follows: under setting [3], 100 % of control; under setting [4], 104 % of control; under setting [5], 108 % of control.

As to `NNc1nc(=O)[nH]nc1Sc1ccccc1`, the T/C was 96 % of control under setting [9], 101 % of control under setting [10] and 97 % of control under setting [14].

Regarding `O=C(COc1cccc(Cl)c1)NCc1ccccc1NC(=O)Nc1cccc(S(=O)(=O)F)c1`, the T/C is, setting by setting: under setting [6], 88 % of control; under setting [7], 89 % of control; under setting [8], 94 % of control.

`CCC1OCC(C(Cl)CCl)O1` (stereo not given): the T/C is 94 % of control and 101 % of control (endpoint: mean survival time, dose: 12.5 mg/kg/injection, schedule: Q01DX009 (ip), vehicle: Klucel (hydroxypropylcellulose) (HPC)); 99 % of control and 102 % of control (endpoint: mean survival time, dose: 25.0 mg/kg/injection, schedule: Q01DX009 (ip), vehicle: Klucel (hydroxypropylcellulose) (HPC)); 95 % of control and 96 % of control (endpoint: mean survival time, dose: 50.0 mg/kg/injection, schedule: Q01DX009 (ip), vehicle: Klucel (hydroxypropylcellulose) (HPC)); 94 % of control and 107 % of control (endpoint: mean survival time, dose: 100.0 mg/kg/injection, schedule: Q01DX009 (ip), vehicle: Klucel (hydroxypropylcellulose) (HPC)); 90 % of control and 91 % of control (endpoint: mean survival time, dose: 200.0 mg/kg/injection, schedule: Q01DX009 (ip), vehicle: Klucel (hydroxypropylcellulose) (HPC)); 87 % of control (endpoint: mean survival time, dose: 400.0 mg/kg/injection, schedule: Q01DX009 (ip), vehicle: Klucel (hydroxypropylcellulose) (HPC)).

As to `CCOC(=O)C1(C(=O)OCC)COC(C)(C)OC1`, the T/C is 93 % of control under setting [11]; 94 % of control under setting [13]; 94 % of control (endpoint: mean survival time, dose: 400.0 mg/kg/injection, schedule: Q01DX009 (ip), vehicle: saline).

`CN(C)CCC(=O)c1cccc2ccccc12`: the T/C is 98 % of control (endpoint: mean survival time, dose: 25.0 mg/kg/injection, schedule: Q01DX009 (ip), vehicle: saline with Tween-80); 96 % of control under setting [3]; 92 % of control under setting [6]; 96 % of control under setting [4].

On to `O=C1C=C(Nc2ccc([N+](=O)[O-])cc2Cl)c2ccccc2C1=O`, for which the T/C under setting [9] is 100 % of control, the T/C under setting [10] was 101 % of control and the T/C under setting [14] was 112 % of control.

On to `O=[N+]([O-])c1cccc(/C=C/C2(CCl)OCCO2)c1`, for which the T/C is 101 % of control under setting [6] and 116 % of control under setting [7].

Take `COc1cc([N+](=O)[O-])ccc1NC(=O)Oc1ccccc1F`: the T/C under setting [4] was 109 % of control; the T/C under setting [5] was 109 % of control; the T/C (endpoint: mean survival time, dose: 400.0 mg/kg/injection, schedule: Q01DX009 (ip), vehicle: saline with Tween-80) was 108 % of control.

With `CN(C)CCCOc1nc2c(c(=O)n(C)c(=O)n2C)n1C` (tested in a mixture with another compound), the T/C by setting is: (endpoint: median survival time, dose: 6.25 mg/kg/injection, schedule: Q01DX009 (ip), vehicle: Klucel (hydroxypropylcellulose) (HPC)) 111 % of control; (endpoint: median survival time, dose: 12.5 mg/kg/injection, schedule: Q01DX009 (ip), vehicle: Klucel (hydroxypropylcellulose) (HPC)) 116 % of control and 117 % of control; (endpoint: median survival time, dose: 50.0 mg/kg/injection, schedule: Q01DX009 (ip), vehicle: Klucel (hydroxypropylcellulose) (HPC)) 154 % of control and 176 % of control; (endpoint: median survival time, dose: 100.0 mg/kg/injection, schedule: Q01DX009 (ip), vehicle: Klucel (hydroxypropylcellulose) (HPC)) 155 % of control and 185 % of control; (endpoint: median survival time, dose: 200.0 mg/kg/injection, schedule: Q01DX009 (ip), vehicle: Klucel (hydroxypropylcellulose) (HPC)) 172 % of control.

In the case of `CC(CCC(=O)O)C1CCC2C3C(O)CC4CC(O)CCC4(C)C3CC(O)C12C` (stereo not given), the T/C is, setting by setting: under setting [6], 96 % of control; under setting [7], 100 % of control; under setting [8], 96 % of control.

For `COc1ccc(OC)c(NC(=O)OCC(F)(F)F)c1`, the T/C by setting is: under setting [3], 97 % of control; under setting [5], 103 % of control.

Consider `O=C(Nc1cccc2ccccc12)N(c1ccccc1)c1ccccc1`, for which the T/C runs as follows: (endpoint: mean survival time, dose: 100.0 mg/kg/injection, schedule: Q01DX001 (ip), vehicle: saline) 105 % of control; (endpoint: mean survival time, dose: 200.0 mg/kg/injection, schedule: Q01DX001 (ip), vehicle: saline) 96 % of control; (endpoint: mean survival time, dose: 400.0 mg/kg/injection, schedule: Q01DX001 (ip), vehicle: saline) 94 % of control.

For `NC(=O)N/N=C\c1ccco1`, the T/C under setting [1] was 102 % of control.

Take `Nc1nc(-c2ccccc2)nc2[nH]ncc12`: the T/C under setting [6] was 95 % of control, the T/C under setting [7] was 95 % of control and the T/C under setting [8] is 89 % of control.

With `CCOC(=O)C(C(=O)OCC)N(Cc1ccccc1)Cc1ccccc1`, the T/C (endpoint: mean survival time, dose: 12.5 mg/kg/injection, schedule: Q01DX009 (ip), vehicle: other) is 93 % of control; the T/C (endpoint: mean survival time, dose: 25.0 mg/kg/injection, schedule: Q01DX009 (ip), vehicle: other) was 93 % of control; the T/C (endpoint: mean survival time, dose: 50.0 mg/kg/injection, schedule: Q01DX009 (ip), vehicle: other) is 96 % of control; the T/C (endpoint: mean survival time, dose: 100.0 mg/kg/injection, schedule: Q01DX009 (ip), vehicle: other) is 93 % of control; the T/C (endpoint: mean survival time, dose: 200.0 mg/kg/injection, schedule: Q01DX009 (ip), vehicle: other) is 90 % of control.

`COc1cc2c3c(c1)-c1c(ccc(OC)c1OC)CC3N(CCN(CCCl)CCCl)CC2` (stereo not given): the T/C (endpoint: mean survival time, dose: 6.25 mg/kg/injection, schedule: Q04DX003 (ip), vehicle: saline) was 101 % of control; the T/C (endpoint: mean survival time, dose: 12.5 mg/kg/injection, schedule: Q04DX003 (ip), vehicle: saline) was 98 % of control; the T/C (endpoint: mean survival time, dose: 25.0 mg/kg/injection, schedule: Q04DX003 (ip), vehicle: saline) was 101 % of control; the T/C (endpoint: mean survival time, dose: 50.0 mg/kg/injection, schedule: Q04DX003 (ip), vehicle: saline) is 101 % of control; the T/C under setting [12] is 87 % of control.
